Measured values: patent US9067963B2, “N-alkyl 2-(disubstituted)alkynyladenosine-5-uronamides as A2A agonists” (Lewis and Clark Pharmaceuticals, Inc., priority 2012, dated 2015)

Molecular target: A2A adenosine receptors (Homo sapiens, UniProt P29274)
Assay: A2A Ki binding (methodology of Murphree et al., Mol Pharmacol 2002, 61, 455-62)
From the text: The Ki values were obtained using the methodology described by Murphree et al. in Mol Pharmacol 2002, 61, 455-62.

A2A adenosine receptors, sequence (P29274 whole entry): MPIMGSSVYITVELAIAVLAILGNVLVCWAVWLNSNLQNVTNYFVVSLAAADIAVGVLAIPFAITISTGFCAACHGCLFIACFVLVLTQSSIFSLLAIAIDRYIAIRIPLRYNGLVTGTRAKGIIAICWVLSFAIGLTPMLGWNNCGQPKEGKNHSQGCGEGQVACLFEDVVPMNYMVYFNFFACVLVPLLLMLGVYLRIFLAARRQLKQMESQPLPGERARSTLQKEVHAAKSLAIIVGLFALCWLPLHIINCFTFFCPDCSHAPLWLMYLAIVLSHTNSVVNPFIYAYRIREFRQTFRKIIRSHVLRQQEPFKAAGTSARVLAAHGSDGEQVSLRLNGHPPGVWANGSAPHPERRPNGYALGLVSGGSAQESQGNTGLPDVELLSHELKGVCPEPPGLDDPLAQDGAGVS

Structure (SMILES) | Ki [nM]
CNC(=O)[C@H]1O[C@@H](n2cnc3c(N)nc(C#CCN(C)C(=O)c4ccc(F)nc4)nc32)C(O)[C@@H]1O (stereo partly drawn) [Example 6, N-Methyl 2-{3-[N-methyl-1-(6-fluoropyridin-3-yl)formamido]prop-1-yn-1-yl}adenosine-5′-uronamide] | < 1
CNC(=O)[C@H]1O[C@@H](n2cnc3c(N)nc(C#CCN(C(=O)c4ccccc4)C4CCC4)nc32)C(O)[C@@H]1O (stereo partly drawn) [Example 8, N-Methyl 2-{3-[N-(cyclobutyl)benzamido]propyn-1-yl}adenosine-5′-uronamide] | < 1
CNC(=O)[C@H]1O[C@@H](n2cnc3c(N)nc(C#CCN(C(=O)c4ccc(F)cc4)C4CCC4)nc32)C(O)[C@@H]1O (stereo partly drawn) [Example 19] | < 1
CNC(=O)[C@H]1O[C@@H](n2cnc3c(N)nc(C#CCN(C)C(=O)c4ccc(C#N)cc4)nc32)C(O)[C@@H]1O (stereo partly drawn) [Example 33] | < 1
CCNC(=O)[C@H]1O[C@@H](n2cnc3c(N)nc(C#CCN(C(=O)Cc4ccccc4)C4CC4)nc32)C(O)[C@@H]1O (stereo partly drawn) [Example 27] | 1 to 50
CN(CC#Cc1nc(N)c2ncn([C@@H]3O[C@H](C(=O)NC4CC4)[C@@H](O)C3O)c2n1)C(=O)c1ccc(F)nc1 (stereo partly drawn) [Example 7, N-Cyclopropyl 2-{3-[N-methyl-1-(6-fluoropyridin-3-yl)formamido]prop-1-yn-1-yl}adenosine-5′-uronamide] | 1 to 50
Nc1nc(C#CCN(CC2CC2)C(=O)c2ccccc2)nc2c1ncn2[C@@H]1O[C@H](C(=O)NC2CC2)[C@@H](O)C1O (stereo partly drawn) [Example 3, N-Cyclopropyl 2-{3-[N-(cyclopropylmethyl)benzamido]propyn-1-yl}adenosine-5′-uronamide] | < 1
CNC(=O)[C@H]1O[C@@H](n2cnc3c(N)nc(C#CCN(C(=O)c4cccc(F)c4)C4CCC4)nc32)C(O)[C@@H]1O (stereo partly drawn) [Example 20] | < 1
Nc1nc(C#CCN(C(=O)c2ccccc2)C2CC2)nc2c1ncn2[C@@H]1O[C@H](C(=O)NC2CC2)[C@@H](O)C1O (stereo partly drawn) [Example 25] | < 1
CCNC(=O)[C@H]1O[C@@H](n2cnc3c(N)nc(C#CCN(C)C(=O)c4ccc(C(F)(F)F)nc4)nc32)C(O)[C@@H]1O (stereo partly drawn) [Example 28] | < 1
Nc1nc(C#CCN(C(=O)c2ccccc2)C2CCC2)nc2c1ncn2[C@@H]1O[C@H](C(=O)NC2CC2)[C@@H](O)C1O (stereo partly drawn) [Example 4, N-Cyclopropyl 2-{3-[N-(cyclobutyl)benzamido]propyn-1-yl}adenosine-5′-uronamide] | < 1
CNC(=O)[C@H]1O[C@@H](n2cnc3c(N)nc(C#CCN(C)C(=O)c4ccc(OC)c(F)c4)nc32)C(O)[C@@H]1O (stereo partly drawn) [Example 29] | < 1
CNC(=O)[C@H]1O[C@@H](n2cnc3c(N)nc(C#CCN(C(=O)c4ccccc4)C4CCCC4)nc32)C(O)[C@@H]1O (stereo partly drawn) [Example 31] | < 1
CNC(=O)[C@H]1O[C@@H](n2cnc3c(N)nc(C#CCN(Cc4cccs4)C(=O)c4ccccc4)nc32)C(O)[C@@H]1O (stereo partly drawn) [Example 34] | 1 to 50
CNC(=O)[C@H]1O[C@@H](n2cnc3c(N)nc(C#CCN(Cc4ccc(OC)cc4)C(=O)C4CC4)nc32)C(O)[C@@H]1O (stereo partly drawn) [Example 17] | 1 to 50
Nc1nc(C#CCN(C(=O)Cc2ccccc2)C2CC2)nc2c1ncn2[C@@H]1O[C@H](C(=O)NC2CC2)[C@@H](O)C1O (stereo partly drawn) [Example 16] | 1 to 50
CNC(=O)[C@H]1O[C@@H](n2cnc3c(N)nc(C#CCN(CCOC)C(=O)c4ccccc4)nc32)C(O)[C@@H]1O (stereo partly drawn) [Example 14, N-Methyl 2-{3-[N-(2-methoxyethyl)benzamido]propyn-1-yl}adenosine-5′-uronamide] | < 1
CCNC(=O)[C@H]1O[C@@H](n2cnc3c(N)nc(C#CCN(C(=O)c4ccc(Cl)nc4)C4CC4)nc32)C(O)[C@@H]1O (stereo partly drawn) [Example 26] | < 1

Structure (SMILES) | Ki [nM]
CNC(=O)[C@H]1O[C@@H](n2cnc3c(N)nc(C#CCN(C)C(=O)c4cccnc4)nc32)C(O)[C@@H]1O (stereo partly drawn) [Example 9, N-Methyl 2-{3-[N-methylnicotinamido]propyn-1-yl}adenosine-5′-uronamide] | 1 to 50
CNC(=O)[C@H]1O[C@@H](n2cnc3c(N)nc(C#CCN(C)C(=O)c4ccc(F)cc4)nc32)C(O)[C@@H]1O (stereo partly drawn) [Example 15, N-Methyl 2-{3-[4-fluoro-N-methylbenzamido]propyn-1-yl}adenosine-5′-uronamide] | < 1
COc1ccc(CN(CC#Cc2nc(N)c3ncn([C@@H]4O[C@H](C(=O)NC5CC5)[C@@H](O)C4O)c3n2)C(=O)C2CC2)cc1 (stereo partly drawn) [Example 18] | < 1
CNC(=O)[C@H]1O[C@@H](n2cnc3c(N)nc(C#CCN(C(=O)c4ccc(OC)c(F)c4)C4CCC4)nc32)C(O)[C@@H]1O (stereo partly drawn) [Example 21] | < 1
CNC(=O)[C@H]1O[C@@H](n2cnc3c(N)nc(C#CCN(C)C(=O)c4ccccc4)nc32)C(O)[C@@H]1O (stereo partly drawn) [Example 13, N-Methyl 2-{3-[N-methylbenzamido]propyn-1-yl}adenosine-5′-uronamide] | < 1
CNC(=O)[C@H]1O[C@@H](n2cnc3c(N)nc(C#CCN(CC(C)C)C(=O)c4ccccc4)nc32)C(O)[C@@H]1O (stereo partly drawn) [Example 32] | < 1
CNC(=O)[C@H]1O[C@@H](n2cnc3c(N)nc(C#CCN(CCOC)C(=O)c4ccc(F)nc4)nc32)C(O)[C@@H]1O (stereo partly drawn) [Example 11, N-Methyl 2-{3-[6-fluoro-N-(2-methoxyethyl)nicotinamido]propyn-1-yl}adenosine-5′-uronamide] | < 1
CNC(=O)[C@H]1O[C@@H](n2cnc3c(N)nc(C#CCN(C)C(=O)c4ccc(C(F)(F)F)nc4)nc32)C(O)[C@@H]1O (stereo partly drawn) [Example 1, N-Methyl 2-(3-{N-methyl-1-[6-(trifluoromethyl)pyridin-3-yl]formamido}prop-1-yn-1-yl)adenosine-5′-uronamide] | < 1
CNC(=O)[C@H]1O[C@@H](n2cnc3c(N)nc(C#CCN(C)C(=O)c4ccncc4)nc32)C(O)[C@@H]1O (stereo partly drawn) [Example 10, N-Methyl 2-{3-[N-methylisonicotinamido]propyn-1-yl}adenosine-5′-uronamide] | 1 to 50
CNC(=O)[C@H]1O[C@@H](n2cnc3c(N)nc(C#CCN(C(=O)c4ccc(Cl)nc4)C4CC4)nc32)C(O)[C@@H]1O (stereo partly drawn) [Example 22] | < 1
CN(CC#Cc1nc(N)c2ncn([C@@H]3O[C@H](C(=O)NC4CC4)[C@@H](O)C3O)c2n1)C(=O)c1ccc(C(F)(F)F)nc1 (stereo partly drawn) [Example 2, N-Cyclopropyl 2-(3-{N-methyl-1-[6-(trifluoromethyl)pyridin-3-yl]formamido}prop-1-yn-1-yl)adenosine-5′-uronamide] | < 1
CCNC(=O)[C@H]1O[C@@H](n2cnc3c(N)nc(C#CCN(C)C(=O)c4ccc(F)nc4)nc32)C(O)[C@@H]1O (stereo partly drawn) [Example 35] | < 1
CNC(=O)[C@H]1O[C@@H](n2cnc3c(N)nc(C#CCN(CCOC)C(=O)c4cccs4)nc32)C(O)[C@@H]1O (stereo partly drawn) [Example 12, N-Methyl 2-{3-[N-(2-methoxyethyl)thiophene-2-carboxamido]propyn-1-yl}adenosine-5′-uronamide] | < 1
Nc1nc(C#CCNC(=O)c2ccccc2)nc2c1ncn2[C@@H]1O[C@H](C(=O)NC2CC2)[C@@H](O)C1O (stereo partly drawn) [Example 5, N-Cyclopropyl 2-{3-[benzamido]propyn-1-yl}adenosine-5′-uronamide] | 1 to 50
CNC(=O)[C@H]1O[C@@H](n2cnc3c(N)nc(C#CCN(C(=O)c4ccc(Cl)cc4)C4CCC4)nc32)C(O)[C@@H]1O (stereo partly drawn) [Example 30] | < 1
CNC(=O)[C@H]1O[C@@H](n2cnc3c(N)nc(C#CCN(C(=O)c4ccccc4)C4CC4)nc32)C(O)[C@@H]1O (stereo partly drawn) [Example 23] | > 50
CCNC(=O)[C@H]1O[C@@H](n2cnc3c(N)nc(C#CCN(Cc4ccc(OC)cc4)C(=O)C4CC4)nc32)C(O)[C@@H]1O (stereo partly drawn) [Example 36] | 1 to 50
Nc1nc(C#CCN(C(=O)c2ccc(Cl)nc2)C2CC2)nc2c1ncn2[C@@H]1O[C@H](C(=O)NC2CC2)[C@@H](O)C1O (stereo partly drawn) [Example 24] | < 1
